In experiment [1] the target is MAPK14 (human) (UniProt Q16539). Nature of the experiment: Inhibition of MAPK14 Kinase Activity by PHAS-I Assay. To be noted: for inhibition: concentration not given here.
The target is the same in experiment [2]. Nature of the experiment: Inhibition of LPS Stimulated TNF Production by U937 Cells.

In general, IC50 refers to the concentration that inhibits the measured activity by half.

Where only a bound is given, the exact number is not on record here.

Chain of MAPK14 (human) (Q16539 whole entry, looked up): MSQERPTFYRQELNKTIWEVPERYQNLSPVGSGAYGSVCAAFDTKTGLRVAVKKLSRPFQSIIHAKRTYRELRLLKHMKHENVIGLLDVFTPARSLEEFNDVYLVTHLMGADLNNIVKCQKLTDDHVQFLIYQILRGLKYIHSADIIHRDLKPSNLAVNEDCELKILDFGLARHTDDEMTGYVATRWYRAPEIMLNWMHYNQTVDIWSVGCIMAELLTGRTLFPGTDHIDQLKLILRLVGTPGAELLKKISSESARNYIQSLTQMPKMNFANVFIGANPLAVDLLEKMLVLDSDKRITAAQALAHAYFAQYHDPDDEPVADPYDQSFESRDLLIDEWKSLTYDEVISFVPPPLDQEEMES

Compound `CC1(C)[C@H]2CC[C@@]1(CCS(=O)(=O)NCc1[nH]nc(-c3ccc(F)cc3)c1-c1ccncc1)C(=O)C2` displayed an IC50 against MAPK14 (human) [1] below 100 nM. In addition, the inhibition at MAPK14 (human) [2] (concentration not given here) was 11%.
For `CCN(CC)CCN(Cc1ccc(Cl)cc1)C(=O)Cn1nc(-c2ccc(F)cc2)c(-c2ccncc2)c1C`, the inhibition was found to be 55% against MAPK14 (human) [1] and 10% on MAPK14 (human) [2] (concentration not given here).
For `Cc1c(-c2ccncc2)c(-c2ccc(F)cc2)nn1CC(=O)N(C)CCCC1c2ccccc2CCc2ccccc21`, the inhibition against MAPK14 (human) [1] is 50%. In addition, the IC50 at MAPK14 (human) [2] is above 10 µM.
With `Cc1c(-c2ccncc2)c(-c2ccc(F)cc2)nn1CC(=O)Nc1ccccc1Sc1ccc([N+](=O)[O-])cn1`, the inhibition at MAPK14 (human) [1] worked out at 90%; at MAPK14 (human) [2] (concentration not given here), 18%.
The like results for `CCN(CC)C(=O)NCCc1[nH]nc(-c2ccc(F)cc2)c1-c1ccncc1` were, in that order, 67% and 19%.
Take `Cc1cc(Cl)ccc1OCC1SCCN1C(=O)Cn1nc(-c2ccc(F)cc2)c(-c2ccncc2)c1C` (stereo not given): the inhibition against MAPK14 (human) [1] was 47%. In addition, the IC50 at MAPK14 (human) [2] is above 10 µM.
Turning to `O=C(NCCc1[nH]nc(-c2ccc(F)cc2)c1-c1ccncc1)Nc1ccc(Oc2ccccc2)cc1`, the inhibition at MAPK14 (human) [1] is 63%; against MAPK14 (human) [2] (concentration not given here), 24%.
The like results for `O=C(NCCc1[nH]nc(-c2ccc(F)cc2)c1-c1ccncc1)N[C@@H]1C[C@@H]1c1ccccc1` were, in that order, 81% and 25%.
The like results for `Cc1cc(C)c(NC(=O)NCCc2[nH]nc(-c3ccc(F)cc3)c2-c2ccncc2)c(C)c1` were, in that order, 57% and 47%.
As to `CC(C)(C)C(=O)NCCc1[nH]nc(-c2ccc(F)cc2)c1-c1ccncc1`, the inhibition at MAPK14 (human) [1] came out at 69%; against MAPK14 (human) [2] (concentration not given here), 66%.
`CN(C(=O)NCc1[nH]nc(-c2ccc(F)cc2)c1-c1ccncc1)c1ccccc1` registered an IC50 against MAPK14 (human) [1] of 530 nM. On MAPK14 (human) [2] (concentration not given here), this compound displayed an inhibition of 18%.
`O=S(=O)(NCCc1[nH]nc(-c2ccc(F)cc2)c1-c1ccncc1)C(F)(F)F`: the figures for the inhibition against MAPK14 (human) [1] and against MAPK14 (human) [2] (concentration not given here) were 82% and 66%, respectively.
The like results for `COCCN(Cc1cccc(OC)c1)C(=O)Cn1nc(-c2ccc(F)cc2)c(-c2ccncc2)c1C` were, in that order, 37% and 22%.
As to `CCN(CC)C1CCN(C(=O)Cn2nc(-c3ccc(F)cc3)c(-c3ccncc3)c2C)C1` (stereo not given), the inhibition stood at 40% against MAPK14 (human) [1] and 59 µM at MAPK14 (human) [2].
As to `COc1cc(OC)c(NC(=O)NCc2[nH]nc(-c3ccc(F)cc3)c2-c2ccncc2)cc1O`, the inhibition on MAPK14 (human) [1] was 4%; against MAPK14 (human) [2] (concentration not given here), 14%.
`C[C@@H](NS(=O)(=O)c1ccccc1C(=O)O)c1[nH]nc(-c2ccc(F)cc2)c1-c1ccncc1`: the IC50 against MAPK14 (human) [1] is 580 nM. On MAPK14 (human) [2] (concentration not given here), this compound had an inhibition of 59%.
In the same order, the values of `O=C(NCCCc1[nH]nc(-c2ccc(F)cc2)c1-c1ccncc1)NCCc1cccnc1` are 71 nM and 18%.
`COCC(=O)NCCc1[nH]nc(-c2ccc(F)cc2)c1-c1ccncc1`: the inhibition at MAPK14 (human) [1] is 55%; at MAPK14 (human) [2] (concentration not given here), 43%.
Turning to `O=C(N[C@H](Cc1ccccc1)c1[nH]nc(-c2ccc(F)cc2)c1-c1ccncc1)c1ccccc1I`, the IC50 against MAPK14 (human) [1] was found to be 540 nM. The inhibition against MAPK14 (human) [2] (concentration not given here) was found to be 34%.
With `Cc1c(-c2ccncc2)c(-c2ccc(F)cc2)nn1CC(=O)N1CCCCC1CCN1CCCCC1` (stereo not given), the inhibition against MAPK14 (human) [1] amounted to 26%; at MAPK14 (human) [2] (concentration not given here), 13%.
On to `CC1(C)[C@@H]2CC[C@]1(CS(=O)(=O)NCCc1[nH]nc(-c3ccc(F)cc3)c1-c1ccncc1)C(=O)C2`, for which the IC50 on MAPK14 (human) [1] is 160 nM. The same compound displayed an inhibition against MAPK14 (human) [2] (concentration not given here) of 44%.
As to `Cc1ccc(S(=O)(=O)NCCc2[nH]nc(-c3ccc(F)cc3)c2-c2ccncc2)cc1`, the inhibition came out at 58% against MAPK14 (human) [1] and 18% against MAPK14 (human) [2] (concentration not given here).
`C[C@H](NS(=O)(=O)c1cc(Cl)cc(Cl)c1O)c1[nH]nc(-c2ccc(F)cc2)c1-c1ccncc1` returned an IC50 against MAPK14 (human) [1] of 170 nM. This compound had an inhibition on MAPK14 (human) [2] (concentration not given here) of 76%.
For `C[C@H](NC(=O)NCCCc1[nH]nc(-c2ccc(F)cc2)c1-c1ccncc1)c1ccccc1`, the inhibition came out at 85% on MAPK14 (human) [1] and 37% at MAPK14 (human) [2] (concentration not given here).
The like results for `O=S(=O)(/C=C/c1ccccc1)NCCCc1[nH]nc(-c2ccc(F)cc2)c1-c1ccncc1` were, in that order, 69% and 65%.
The like results for `CC(=O)Oc1cccc(C(=O)NCc2[nH]nc(-c3ccc(F)cc3)c2-c2ccncc2)c1` were, in that order, 98% and 52%.
In the same order, the values of `Cc1c(-c2ccncc2)c(-c2ccc(F)cc2)nn1CC(=O)N1CCC[C@H]1CN1CCCC1` are 49% and 10%.
As to `CC(=O)OC(C)(C)C(=O)NCCc1[nH]nc(-c2ccc(F)cc2)c1-c1ccncc1`, the inhibition on MAPK14 (human) [1] was 70%; against MAPK14 (human) [2] (concentration not given here), 71%.
In the same order, the values of `O=S(=O)(NCCc1[nH]nc(-c2ccc(F)cc2)c1-c1ccncc1)c1ccc(F)cc1F` are 88% and 34%.
With `O=C(NCc1[nH]nc(-c2ccc(F)cc2)c1-c1ccncc1)[C@@H]1CCCN1C(=O)C(F)(F)F`, the inhibition against MAPK14 (human) [1] was 96%; at MAPK14 (human) [2] (concentration not given here), 52%.

(Values after the Kinase Knowledgebase extract (Sharma et al. 2016).)
